Tests used:
hCB2R [1] = target: T1, hCB2R (Homo sapiens, UniProt P34972); test: CB2R competitive radioligand binding assay; conditions: selectivity ratio
hCB2R [2] = target: T1, hCB2R; test: forskolin-stimulated cAMP assay; format: cell-based; conditions: for cAMP (CB2R) EC50/IC50 (nM): EC50: agonist mode, inhibition of forskolin (10 μM) mediated cAMP production
h-CB2R = h-CB2R (Homo sapiens, UniProt P34972); conditions: classification from β-arrestin 2 (and cAMP) assays
[3] = solubility under the cAMP assay test conditions; format: physicochemical; conditions: functional cAMP assay conditions

Chain of h-CB2R (P34972 whole entry): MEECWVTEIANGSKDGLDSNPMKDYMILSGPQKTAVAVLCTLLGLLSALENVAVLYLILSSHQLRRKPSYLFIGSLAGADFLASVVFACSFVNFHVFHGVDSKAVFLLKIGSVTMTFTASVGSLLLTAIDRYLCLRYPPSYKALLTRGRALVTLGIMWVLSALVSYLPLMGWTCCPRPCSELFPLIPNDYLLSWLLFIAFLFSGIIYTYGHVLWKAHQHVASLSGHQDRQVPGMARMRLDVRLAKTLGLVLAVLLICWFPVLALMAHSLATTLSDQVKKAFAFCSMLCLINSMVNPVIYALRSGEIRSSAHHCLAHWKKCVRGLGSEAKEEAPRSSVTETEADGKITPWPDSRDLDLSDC
T1 sequence (P34972 whole entry): as above

Row | SMILES | Ki(CB1)/Ki(CB2) (hCB2R [1]) | functional activity at CB2R (h-CB2R) | other results
1 | C[C@H]1CC[C@@H](NC(=O)c2cc3cc(-c4ccco4)cnc3n(Cc3ccc(F)cc3)c2=O)CC1 [Compound 22-cis, cis-1-(4-Fluorobenzyl)-6-(furan-2-yl)-N-(4-methylcyclohexyl)-2-oxo-1,2-dihydro-1,8-naphthyridine-3-carboxamide] | 15 022 |  | 
2 | CC1CCC(NC(=O)c2cc3cc(Br)cnc3n(CCN3CCOCC3)c2=O)CC1 (centres unmarked) [Compound 18, 6-Bromo-N-(4-methylcyclohexyl)-1-(2-morpholinoethyl)-2-oxo-1,2-dihydro-1,8-naphthyridine-3-carboxamide] |  | inverse agonists as well as antagonists | cAMP (CB2R) EC50/IC50 (nM): IC50 (hCB2R [2]; antagonist mode, inhibition of response to WIN-55,212-2 (30 nM) with forskolin): 59.6 nM
3 | CCOC(=O)CCn1c(=O)c(C(=O)NC2CCC(C)CC2)cc2cccnc21 (centres unmarked) [Compound 8, Ethyl 3-(3-(4-Methylcyclohexylcarbamoyl)-2-oxo-1,8-naphthyridin-1(2H)-yl)propanoate] | >57 |  | 
4 | CC1CCC(NC(=O)c2cc3cccnc3n(CCN3CCOCC3)c2=O)CC1 (centres unmarked) [A1] |  | agonists | cAMP (CB2R) EC50/IC50 (nM): EC50 (hCB2R [2]): 28.0 nM
5 | CC1CCC(NC(=O)c2cc3cccnc3n(CCCCC(=O)O)c2=O)CC1 (centres unmarked) [Compound 13, 5-(3-(4-Methylcyclohexylcarbamoyl)-2-oxo-1,8-naphthyridin-1(2H)-yl)pentanoic Acid] | >7 |  | 
6 | CC1CCC(NC(=O)c2cc3cc(Br)cnc3n(Cc3ccc(F)cc3)c2=O)CC1 (centres unmarked) [Compound 17, 6-Bromo-1-(4-fluorobenzyl)-N-(4-methylcyclohexyl)-2-oxo-1,2-dihydro-1,8-naphthyridine-3-carboxamide] |  | inverse agonists as well as antagonists | solubility under the test conditions [3]: insoluble
7 | CC1CCC(NC(=O)c2cc3cccnc3n(CCCCCCO)c2=O)CC1 (centres unmarked) [Compound 7, 1-(6-Hydroxyhexyl)-N-(4-methylcyclohexyl)-2-oxo-1,2-dihydro-1,8-naphthyridine-3-carboxamide] | >554 |  | 
8 | CC1CCC(NC(=O)c2cc3cccnc3n(CCCO)c2=O)CC1 (centres unmarked) [Compound 4, 1-(3-Hydroxypropyl)-N-(4-methylcyclohexyl)-2-oxo-1,2-dihydro-1,8-naphthyridine-3-carboxamide] | >77 |  | 
9 | CCOC(=O)CCCn1c(=O)c(C(=O)NC2CCC(C)CC2)cc2cccnc21 (centres unmarked) [Compound 9, Ethyl 4-(3-(4-Methylcyclohexylcarbamoyl)-2-oxo-1,8-naphthyridin-1(2H)-yl)butanoate] | >160 |  | 
10 | C[C@H]1CC[C@H](NC(=O)c2cc3cc(-c4ccco4)cnc3n(Cc3ccc(F)cc3)c2=O)CC1 [Compound 22-trans, trans-1-(4-Fluorobenzyl)-6-(furan-2-yl)-N-(4-methylcyclohexyl)-2-oxo-1,2-dihydro-1,8-naphthyridine-3-carboxamide] | >106 |  | 
11 | CC1CCC(NC(=O)c2cc3cccnc3n(CCCCO)c2=O)CC1 (centres unmarked) [Compound 5, 1-(4-Hydroxybutyl)-N-(4-methylcyclohexyl)-2-oxo-1,2-dihydro-1,8-naphthyridine-3-carboxamide] | >187 | agonists | solubility under the test conditions [3]: insoluble
12 | CC1CCC(NC(=O)c2cc3cccnc3n(CCC(=O)O)c2=O)CC1 (centres unmarked) [Compound 11, 3-(3-(4-Methylcyclohexylcarbamoyl)-2-oxo-1,8-naphthyridin-1(2H)-yl)propanoic Acid] | >7 |  | 
13 | COc1ccc(-c2cnc3c(c2)cc(C(=O)NC2CCC(C)CC2)c(=O)n3CCN2CCOCC2)cc1 (centres unmarked) [Compound 23, 6-(4-Methoxyphenyl)-N-(4-methylcyclohexyl)-1-(2-morpholinoethyl)-2-oxo-1,2-dihydro-1,8-naphthyridine-3-carboxamide] | >6802 | inverse agonists as well as antagonists | solubility under the test conditions [3]: insoluble
14 | CC1CCC(NC(=O)c2cc3cccnc3n(CCCCCO)c2=O)CC1 (centres unmarked) [Compound 6, 1-(5-Hydroxypentyl)-N-(4-methylcyclohexyl)-2-oxo-1,2-dihydro-1,8-naphthyridine-3-carboxamide] | >2778 |  | 
15 | CC1CCC(NC(=O)c2cc3cc(-c4ccc(F)cc4)cnc3n(Cc3ccc(F)cc3)c2=O)CC1 (centres unmarked) [Compound 21, 1-(4-Fluorobenzyl)-6-(4-fluorophenyl)-N-(4-methyl-cyclohexyl)-2-oxo-1,2-dihydro-1,8-naphthyridine-3-carboxamide] | >4608 |  | 
16 | COC(=O)CCCCn1c(=O)c(C(=O)NC2CCC(C)CC2)cc2cccnc21 (centres unmarked) [Compound 10, Methyl 5-(3-(4-Methylcyclohexylcarbamoyl)-2-oxo-1,8-naphthyridin-1(2H)-yl)pentanoate] | >369 |  | 
17 | CC1CCC(NC(=O)c2cc3cccnc3n(CCCCF)c2=O)CC1 (centres unmarked) [Compound 14, 1-(4-Fluorobutyl)-1,2-dihydro-N-(4-methylcyclohexyl)-2-oxo-1,8-naphthyridine-3-carboxamide] |  | agonists | cAMP (CB2R) EC50/IC50 (nM): EC50 (hCB2R [2]): 20.6 nM
18 | CC1CCC(NC(=O)c2cc3cccnc3n(CCO)c2=O)CC1 (centres unmarked) [Compound 3, 1-(2-Hydroxyethyl)-N-(4-methylcyclohexyl)-2-oxo-1,2-dihydro-1,8-naphthyridine-3-carboxamide] | >5 |  | 
19 | CC1CCC(NC(=O)c2cc3cccnc3n(CCCC(=O)O)c2=O)CC1 (centres unmarked) [Compound 12, 4-(3-(4-Methylcyclohexylcarbamoyl)-2-oxo-1,8-naphthyridin-1(2H)-yl)butanoic Acid] | >4 |  | 
20 | CC1CCC(NC(=O)c2cc3cccnc3n(Cc3ccc(F)cc3)c2=O)CC1 (centres unmarked) [A2] |  | agonists | cAMP (CB2R) EC50/IC50 (nM): EC50 (hCB2R [2]): 29.6 nM

From publication PMC4234427 (Journal of Medicinal Chemistry, 2014)
